# Source: paper PMC5487681, “Identification of Antifungal H^+-ATPase Inhibitors with Effect on Plasma Membrane Potential” (Antimicrobial Agents and Chemotherapy, 2017)
# Read-outs that look alike come from different tables or passages of the source.
# Columns and labels:
# C. albicans = assay: Medium acidification assay, C. albicans; assay type: cell-based, Candida albicans; conditions: Candida albicans, 0.2 h; 50% inhibition of medium acidification, 12 min, n = 2 to 3; read-out: IC50 for acidification, C. albicans
# Method: (§1) Frozen stocks of C. albicans and S. cerevisiae were transferred to YPD agar plates and incubated overnight at 34°C. On the next day, the cells were suspended and washed twice in 50 mM KCl, pH 6.7, after pelleting of the cells by centrifugation at 3,000 × g for 5 min. The cells were then starved overnight at 4°C in the KCl solution. […] The pH drop was then monitored by determination of the fluorescent signal with excitation at 485 nm and emission at 538 nm on a Fluoroskan Ascent plate reader (Thermo Fisher Scientific) for 12 min. The rate of medium acidification was calculated on the basis of the slope of the drop in fluorescence.
# S. cerevisiae = assay: Medium acidification assay, S. cerevisiae; assay type: cell-based, Saccharomyces cerevisiae; conditions: Saccharomyces cerevisiae, 0.2 h; 50% inhibition of medium acidification, 12 min, n = 2 to 3
# Method: as §1
# S. cerevisiae cells [1] = assay: Intracellular ATP (iATP), S. cerevisiae; assay type: cell-based, Saccharomyces cerevisiae; conditions: S. cerevisiae and C. albicans (Fig. 5A, B); compared to compounds 14, 19 and BM2
# Method: S. cerevisiae and C. albicans cells were grown and washed as described above for the membrane potential and integrity assay and resuspended in SG medium (0.7% yeast nitrogen base without amino acids [BD], 50 mM succinic acid adjusted to pH 7 with Trizma base) to OD600 of 0.2 and 0.1, respectively. One hundred microliters of an S. cerevisiae or C. albicans cell suspension and 1 μl compound in DMSO were incubated for 30 min. Twenty-five microliters of the suspension was then transferred to a black 96-well plate containing 25 μl BacTiter-Glo reagent (Promega, Madison, WI) and incubated for 15 min in the dark. The luminescence was read on SpectraMax X5 (Molecular Devices, Sunnyvale, CA) plate reader with a 10 s of shaking and a 0.5 s integration time. Standard curves at 10, 100, and 1,000 nM ATP were performed with every experiment.
# Candida albicans SC5314 = assay: microbe, parasite or virus in culture; conditions: Candida albicans, SC5314, pH 7, read-out: MIC C. albicans
# Method: (§2) The following fungal isolates were used: Saccharomyces cerevisiae ATCC 9763, Candida albicans SC5314, Candida parapsilosis ATCC 22019, Candida tropicalis Ct016, Candida glabrata ATCC 90030, Aspergillus fumigatus ATCC 13073, and Aspergillus flavus ATCC MYA-1005. Frozen stocks of yeast isolates in glycerol (final concentration, 20%) were prepared by growing the cells to log phase in YPD medium at 30°C and 150 rpm. Frozen stocks of mold spores were prepared by harvesting spores from 7-day-old potato glucose agar plates in phosphate-buffered saline, 0.1% Tween 80 and aliquoting these spores in the presence of glycerol (final concentration, 20%). The cells were stored at −80°C. The cells or spores were thawed and diluted to a final concentration of 0.5 × 10^5 to 2.5 × 10^5 CFU/ml in sterile Milli-Q H2O. […] The plate was incubated for 20 to 24 h at 34°C (72 h for molds), and the OD490 was measured on a Victor X5 (PerkinElmer) plate reader. Mold growth assay plates were also visually inspected. The MIC was defined as the lowest concentration inhibiting the visual growth of the microorganism.
# Na^+,K^+-ATPase = target: T1, Na^+,K^+-ATPase (Sus scrofa, UniProt P05024); assay: ATP hydrolysis assay, Na+,K+-ATPase; assay type: biochemical, porcine; conditions: Table 1, read-out: IC50 Na^+,K^+-ATPase
# T1 construct: from tissue; host or cells: porcine kidney (gift of Natalya Fedosova, Aarhus University)
# Method: (§3) Rabbit sarcoplasmic reticulum membranes containing sarcoplasmic endoplasmic reticulum Ca^2+-ATPase (SERCA) were kindly provided by Claus E. Olesen and Jesper V. Møller, Aarhus University, and prepared as described in reference. Porcine kidney Na^+,K^+-ATPase was kindly provided by Natalya Fedosova, Aarhus University, and prepared as described in reference.
# (§4) The protein activity levels were determined by measuring the amount of free phosphate produced from the ATP hydrolysis reaction. The assay was performed as described in reference. Each well contained ATPase enzyme, 2 μl of inhibitor (usually in the range of 333 to 0.01 μM) dissolved in dimethyl sulfoxide (DMSO) (Duchefa Biochemie, Haarlem, The Netherlands), and an assay buffer dependent on the enzyme for a final volume of 60 μl. Possible compound precipitation in the assay buffer was monitored using a Nephelostar plate reader measuring turbidity, and the information was taken into account in the IC50 determination. Pma1 assay buffer consisted of 20 mM 3-(N-morpholino)propanesulfonic acid (MOPS)–NaOH, pH 6.5 or 7.0, 8 mM MgSO4, 50 mM KNO3 (a vacuolar ATPase inhibitor), 25 mM sodium azide (a mitochondrial ATPase inhibitor), and 250 μM sodium molybdate (an acid phosphatase inhibitor). SERCA buffer consisted of 9 mM MOPS-NaOH, pH 7, 2.7 mM MgCl2, 90 μM CaCl2, and 72 mM KCl. Na^+,K^+-ATPase buffer consisted of 30 mM MOPS-NaOH, pH 7, 40 mM NaCl, 4 mM MgCl2, and 20 mM KCl. The concentration of protein was adjusted to obtain a signal of the optical density at 860 nm (OD860) of between 0.5 and 1.0 in the untreated samples (for all Pma1 batches, ∼1 to 2 μg/well; for SERCA and Na^+,K^+-ATPase, ∼0.1 to 0.2 μg/well).
# S. cerevisiae Pma1 = S. cerevisiae Pma1 (Saccharomyces cerevisiae, UniProt P05030); assay: ATP hydrolysis assay, S. cerevisiae plasma membranes containing Pma1; assay type: biochemical; parameters: containing the full-length cDNA of the S. cerevisiae plasma membrane H^+-ATPase isoform PMA1; made in house; host or cells: S. cerevisiae RS72 (PMA1 cDNA under PMA1 promoter); also wild-type S. cerevisiae ATCC 9763
# Method: Plasma membranes containing Pma1 were isolated from S. cerevisiae RS72 cells containing the full-length cDNA of the S. cerevisiae plasma membrane H^+-ATPase isoform PMA1 under the control of the PMA1 promoter, as described in reference.
# A 100-ml overnight culture in YPD medium [10 g/liter yeast extract (BD, Sparks, MD), 20 g/liter Bacto peptone (BD), 20 g/liter D-(+)-glucose] was transferred to 1 liter YPD medium and grown at room temperature and 150 rpm for 18 h for wild-type S. cerevisiae (ATCC 9763) and 7 h for C. albicans. The cells were harvested and washed in Milli-Q H2O by centrifugation at 3,360 × g. The cells were glucose activated by the addition of 10% D-(+)-glucose for 10 min while shaking. The cells were then centrifuged at 3,360 × g for 3 min and frozen. Cells (60 to 80 g, wet weight) were then disrupted by bead beating (BioSpec, Bartlesville, OK) and processed as described in reference to prepare the plasma membranes. […] All batches were validated by ATPase hydrolysis activity, pH optimum, and orthovanadate sensitivity.
# as §4, with “μg/well). […]” for “μg/well).”
# [2] = Compound precipitation in the fungal growth medium; assay type: physicochemical; conditions: fungal growth medium (RPMI), footnotes of Table 1
# Method: as §2, with “microorganism. Standard errors were typically below 5%.” for “microorganism.”
# Candida spp. = assay: Fungal growth inhibition, Candida spp. (text summary of Table 1); assay type: cell-based; conditions: 38 μM highest concentration tested for compounds 4 and 8, read-out: MIC for several of the Candida spp. tested
# Method: as §2, with “microorganism. Standard errors were typically below 5%.” for “microorganism.”
# Ca^2+-ATPase (SERCA1a) [3] = target: T2, Ca^2+-ATPase (SERCA1a) (Oryctolagus cuniculus, UniProt P04191); assay: ATP hydrolysis assay, SERCA; assay type: biochemical, rabbit
# Method: as §3, §4
# Candida tropicalis Ct016 = assay: microbe, parasite or virus in culture; conditions: Candida tropicalis, CT016, pH 7, read-out: MIC C. tropicalis
# Method: as §2
# [4] = tested on: Candida parapsilosis ATCC 22019; assay: microbe, parasite or virus in culture; conditions: Lodderomyces parapsilosis, ATCC22019, pH 7, read-out: MIC C. parapsilosis
# Method: as §2
# [5] = tested on: Candida glabrata ATCC 90030; assay: microbe, parasite or virus in culture; conditions: Nakaseomyces glabratus, ATCC90030, pH 7, read-out: MIC C. glabrata
# Method: as §2
# [6] = tested on: Aspergillus fumigatus ATCC 13073; assay: microbe, parasite or virus in culture; conditions: Aspergillus fumigatus, ATCC13073, 72 h, pH 7, read-out: MIC A. fumigatus
# Method: as §2
# Ca^2+-ATPase (SERCA1a) [7] = target: T2, Ca^2+-ATPase (SERCA1a); assay: ATP hydrolysis assay, SERCA; assay type: biochemical, rabbit; conditions: Table 1; ATP hydrolysis at pH 7.4 (compounds marked b)
# [8] = tested on: Saccharomyces cerevisiae ATCC 9763; conditions: pH 3; cited from earlier work
# S. cerevisiae cells [9] = tested on: S. cerevisiae cells; parameters: method as in PMID 19413991; conditions: cited from earlier work
# [10] = Table 1, ATP hydrolysis at pH 7, 2 to 3 experiments, read-out: IC50 Pma1
# Chain of S. cerevisiae Pma1 (P05030 whole entry, canonical isoform): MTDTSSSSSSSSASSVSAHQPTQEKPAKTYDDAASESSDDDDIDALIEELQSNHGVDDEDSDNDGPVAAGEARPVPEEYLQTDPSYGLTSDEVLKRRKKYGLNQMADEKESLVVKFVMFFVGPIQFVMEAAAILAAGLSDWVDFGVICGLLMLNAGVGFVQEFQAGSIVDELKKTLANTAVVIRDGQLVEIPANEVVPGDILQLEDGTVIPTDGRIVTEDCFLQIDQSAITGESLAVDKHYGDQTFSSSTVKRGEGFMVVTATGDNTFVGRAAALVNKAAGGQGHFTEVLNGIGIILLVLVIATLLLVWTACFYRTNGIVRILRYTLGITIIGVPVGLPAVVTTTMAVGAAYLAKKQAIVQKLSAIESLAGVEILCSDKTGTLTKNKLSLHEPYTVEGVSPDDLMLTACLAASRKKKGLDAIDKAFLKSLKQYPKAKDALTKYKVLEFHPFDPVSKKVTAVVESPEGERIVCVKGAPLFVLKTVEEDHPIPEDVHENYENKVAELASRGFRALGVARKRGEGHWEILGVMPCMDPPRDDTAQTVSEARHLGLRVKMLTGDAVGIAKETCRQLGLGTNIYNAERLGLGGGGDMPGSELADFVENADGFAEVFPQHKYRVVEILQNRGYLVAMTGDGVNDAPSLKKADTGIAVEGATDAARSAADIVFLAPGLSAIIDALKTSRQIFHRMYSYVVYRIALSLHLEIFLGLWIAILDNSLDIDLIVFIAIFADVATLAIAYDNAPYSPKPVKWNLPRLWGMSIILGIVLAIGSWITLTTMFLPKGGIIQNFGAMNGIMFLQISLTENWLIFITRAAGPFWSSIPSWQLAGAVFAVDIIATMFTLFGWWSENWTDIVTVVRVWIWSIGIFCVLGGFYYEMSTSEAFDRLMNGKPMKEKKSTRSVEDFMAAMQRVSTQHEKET
# T2 sequence (P04191 1-994 isoform P04191-2): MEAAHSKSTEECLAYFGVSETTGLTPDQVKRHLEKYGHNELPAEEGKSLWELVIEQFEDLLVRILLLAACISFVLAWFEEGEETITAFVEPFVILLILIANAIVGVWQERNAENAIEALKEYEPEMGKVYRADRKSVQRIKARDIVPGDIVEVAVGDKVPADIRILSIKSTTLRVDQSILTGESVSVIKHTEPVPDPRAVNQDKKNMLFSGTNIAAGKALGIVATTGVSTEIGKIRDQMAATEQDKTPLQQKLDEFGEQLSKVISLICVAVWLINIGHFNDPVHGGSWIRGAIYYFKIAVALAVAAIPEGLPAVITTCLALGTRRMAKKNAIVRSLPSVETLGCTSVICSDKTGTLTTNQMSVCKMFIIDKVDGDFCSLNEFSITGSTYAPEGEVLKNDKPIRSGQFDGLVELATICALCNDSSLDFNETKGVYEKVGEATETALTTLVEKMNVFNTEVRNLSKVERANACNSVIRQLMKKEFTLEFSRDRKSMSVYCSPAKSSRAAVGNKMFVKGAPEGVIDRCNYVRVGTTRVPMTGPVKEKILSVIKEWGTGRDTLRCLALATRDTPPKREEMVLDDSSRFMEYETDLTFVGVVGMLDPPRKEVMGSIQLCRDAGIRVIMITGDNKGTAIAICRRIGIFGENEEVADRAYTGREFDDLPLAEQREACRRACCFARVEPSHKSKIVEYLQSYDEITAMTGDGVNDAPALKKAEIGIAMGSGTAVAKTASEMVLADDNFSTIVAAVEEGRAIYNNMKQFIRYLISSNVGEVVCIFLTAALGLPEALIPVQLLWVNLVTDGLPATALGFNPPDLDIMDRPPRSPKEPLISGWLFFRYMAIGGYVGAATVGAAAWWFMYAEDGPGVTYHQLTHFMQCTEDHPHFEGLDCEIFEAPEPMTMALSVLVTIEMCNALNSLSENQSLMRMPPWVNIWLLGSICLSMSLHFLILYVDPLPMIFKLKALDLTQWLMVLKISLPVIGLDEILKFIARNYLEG
smiles,measurement,setting,value
"C[C@@H]1[C@H](O)[C@@H](C)/C=C/C=C/C=C/C=C/C=C/C=C/C=C/[C@H](O[C@@H]2O[C@H](C)[C@@H](O)[C@H](N)[C@@H]2O)C[C@@H]2O[C@](O)(C[C@@H](O)C[C@@H](O)[C@H](O)CC[C@@H](O)C[C@@H](O)CC(=O)O[C@H]1C)C[C@H](O)[C@H]2C(=O)O [AMB, amphotericin B, reference compound]",IC50,C. albicans,> 75 µM
same,IC50,S. cerevisiae,> 75 µM
"N#CC(C#N)=NNc1cccc(Cl)c1 [CCCP, carbonyl cyanide m-chlorophenylhydrazone, reference compound]","Effects on iATP levels, in words",S. cerevisiae cells [1],minimal effects
O=C1[C@@H]2C(c3ccc(Br)cc3)=NN(c3ccccc3)[C@@H]2C(=O)N1c1ccccc1F [Compound 2],MIC,Candida albicans SC5314,> 150 µM
same,IC50,"Na^+,K^+-ATPase; ATP hydrolysis at pH 7",> 105 µM
same,IC50,S. cerevisiae Pma1; [10],2.1 ± 1.3 µM
same,Compound precipitation observed in the growth medium at concentrations down to,[2],d Compound precipitation was observed in the growth medium at concentrations down to 48 μM.
same,MIC,Candida spp.,> 150 µM
same,IC50,Ca^2+-ATPase (SERCA1a) [3],> 105 µM
O=C1C=CC(=O)N1c1cccc2ccccc12 [Compound 10],MIC,Candida tropicalis Ct016,15 µM
same,MIC,[4],116 µM
same,MIC,[5],12 µM
same,MIC,[6],99 µM
same,MIC,Candida albicans SC5314,88 µM
same,IC50,Ca^2+-ATPase (SERCA1a) [7],3.4 ± 1.8 µM
same,IC50,"Na^+,K^+-ATPase; ATP hydrolysis at pH 7.4 (compounds marked b)",> 105 µM
same,IC50,"S. cerevisiae Pma1; IC50 Pma1, Table 1, ATP hydrolysis at pH 6.5 (compounds marked b), 2 to 3 experiments",9.4 ± 1.7 µM
same,IC50,"S. cerevisiae Pma1; IC50 for Pma1, ATP hydrolysis, S. cerevisiae Pma1",< 25 µM
CN1CCc2c(sc3c2C(=O)NC(c2ccc(-c4cccc(Cl)c4)o2)N3)C1 (centres unmarked) [Compound 13],MIC,Candida tropicalis Ct016,> 150 µM
same,MIC,[4],47 µM
same,MIC,[5],31 µM
same,MIC,Candida albicans SC5314,23 µM
same,IC50,"Na^+,K^+-ATPase; ATP hydrolysis at pH 7",30.6 ± 11.1 µM
same,IC50,"S. cerevisiae Pma1; ATP hydrolysis, S. cerevisiae Pma1, read-out: IC50 for Pma1",< 25 µM
same,IC50,S. cerevisiae Pma1; [10],22.6 ± 12.4 µM
same,IC50,Ca^2+-ATPase (SERCA1a) [3],22 ± 3 µM
"CC[C@H]1/C=C/C=C/C[C@@H](C)[C@H](O)[C@@](C)(O)C(=O)[C@@H](C)[C@H](O)[C@@H](C)C(=O)[C@@H](C)[C@H](O)[C@@H](C)/C=C/C(=O)O[C@@H]2[C@H](C)[C@H](CC1)O[C@]1(CC[C@H](C)[C@H](C[C@@H](C)O)O1)[C@H]2C [oligomycin, reference compound]","Effects on iATP levels, in words",S. cerevisiae cells [1],minimal effects
COc1ccc2[nH]c([S+]([O-])Cc3ncc(C)c(OC)c3C)nc2c1 (centres unmarked) [omeprazole],Concentration required for full growth inhibition of Saccharomyces cerevisiae,[8],430 µM
same,"Increase in iATP levels, S. cerevisiae",S. cerevisiae cells [9],36%
